Experimental data as given in ChEMBL document CHEMBL5053556, “Design, Synthesis, and Biological Evaluation of a Novel Series of Teriflunomide Derivatives as Potent Human Dihydroorotate Dehydrogenase Inhibitors for Malignancy Treatment” (J Med Chem, 2021).
≈ marks a conversion by molar mass, not a printed value. Blank lines part the entries; values can stand above or below the compound they belong to.

Legend:
[1] = biological target: T1, Dihydroorotate dehydrogenase (quinone), mitochondrial (Homo sapiens, UniProt Q02127)
T1 sequence (Q02127 whole entry): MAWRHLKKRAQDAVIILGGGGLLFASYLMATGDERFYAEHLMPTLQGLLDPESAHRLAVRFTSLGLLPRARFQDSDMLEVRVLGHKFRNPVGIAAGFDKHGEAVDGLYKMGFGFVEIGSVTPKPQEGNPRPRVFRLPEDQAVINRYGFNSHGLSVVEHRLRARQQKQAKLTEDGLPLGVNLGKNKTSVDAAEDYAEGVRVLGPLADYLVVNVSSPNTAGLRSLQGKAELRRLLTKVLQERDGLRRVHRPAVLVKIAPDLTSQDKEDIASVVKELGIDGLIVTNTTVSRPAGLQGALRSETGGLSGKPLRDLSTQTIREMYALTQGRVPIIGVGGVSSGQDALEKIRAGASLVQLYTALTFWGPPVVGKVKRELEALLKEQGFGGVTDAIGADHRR
Description: Inhibition of human DHODH using dihydroorotate substrate preincubated for 30 mins followed by substrate addition by DCIP based microplate reader analysis

[2] = tested on: Raji; assay: Antiproliferative activity against human Raji cells assessed as cell growth inhibition incubated for 96 hrs by MTT assay; format: functional, cell-based
[3] = tested on: L02; assay: cells; format: ADME, cell-based; details: Homo sapiens, L02, 96 h
Description: Cytotoxicity against human L02 cells assessed as cell growth inhibition incubated for 96 hrs by MTT assay

[4] = biological target: T1, Dihydroorotate dehydrogenase (quinone), mitochondrial; details: dose 100.0 nM, time 30.0 min
[5] = in vitro; details: human, L02 cells and Raji cells
Description: Selectivity index, ratio of IC50 for human L02 cells to IC50 for human Raji cells

[6] = tested on: Mus musculus; assay: Toxicity in NOD-SCID mouse xenografted with human Raji cells assessed as body weight loss at 1.5 mg/kg, po administered for 25 days; format: organism-based; details: in vivo, 600 h, time 25 day
[7] = tested on: Raji; assay: animal or person; details: Mus musculus, po, 600 h, read-out: TGI
Description: Antitumor activity against human Raji cells xenografted in NOD-SCID mouse assessed as tumor growth inhibition at 1.5 mg/kg, po administered for 25 days

[8] = physchem; details: aqueous
Description: Aqueous solubility of compound by UPLC method

[9] = Plasma protein binding in rat at 0.1 uM incubated for 5 hrs by LC-MS analysis; format: ADME, cell-free; details: read-out: PPB (converted)
[10] = Plasma protein binding in rat at 1 uM incubated for 5 hrs by LC-MS analysis; format: ADME, cell-free; details: read-out: PPB (converted)
[11] = Plasma protein binding in rat at 10 uM incubated for 5 hrs by LC-MS analysis; format: ADME, cell-free; details: read-out: PPB (converted)
[12] = Microsomal stability in human liver microsomes assessed as half life at 1 uM measured upto 120 mins in presence of NADPH by LC-MS analysis; format: ADME, Microsome
[13] = Microsomal stability in rat liver microsomes assessed as half life at 1 uM measured upto 120 mins in presence of NADPH by LC-MS analysis; format: ADME, Microsome
[14] = Microsomal stability in mouse liver microsomes assessed as half life at 1 uM measured upto 120 mins in presence of NADPH by LC-MS analysis; format: ADME, Microsome
[15] = Cmax in Sprague-Dawley rat at 15 mg/kg, po measured after 48 hrs by LC-MS analysis; format: ADME, organism-based; parameters: dose 15 mg/kg, time 48 hrs, route po; details: in vivo
[16] = Tmax in Sprague-Dawley rat at 15 mg/kg, po measured after 48 hrs by LC-MS analysis; format: ADME, organism-based; details: in vivo
[17] = Half life in Sprague-Dawley rat at 5 mg/kg, iv measured after 48 hrs by LC-MS analysis; format: ADME, organism-based; details: in vivo
[18] = Half life in Sprague-Dawley rat at 15 mg/kg, po measured after 48 hrs by LC-MS analysis; format: ADME, organism-based; details: in vivo
[19] = Clearance in Sprague-Dawley rat at 5 mg/kg, iv measured after 48 hrs by LC-MS analysis; format: ADME, organism-based; details: Sprague-Dawley, in vivo
[20] = Clearance in Sprague-Dawley rat at 15 mg/kg, po measured after 48 hrs by LC-MS analysis; format: ADME, organism-based; details: in vivo
[21] = AUC(0 to t) in Sprague-Dawley rat at 5 mg/kg, iv measured after 48 hrs by LC-MS analysis; format: ADME, organism-based; parameters: time 48 hrs, dose 5 mg/kg, route iv; details: Sprague-Dawley, in vivo
[22] = AUC(0 to t) in Sprague-Dawley rat at 15 mg/kg, po measured after 48 hrs by LC-MS analysis; format: ADME, organism-based; parameters: dose 15 mg/kg, time 48 hrs, route po; details: in vivo
[23] = Oral bioavailability in Sprague-Dawley rat at 15 mg/kg measured after 48 hrs by LC-MS analysis; format: ADME, organism-based; details: in vivo
[24] = Acute toxicity in BALB/c mouse assessed effect on body weight at 400 mg/kg, po; format: organism-based; details: in vivo
[25] = Acute toxicity in BALB/c mouse assessed change in behavior at 400 mg/kg, po; format: organism-based; details: in vivo
[26] = Acute toxicity in BALB/c mouse assessed effect on feeding at 400 mg/kg, po; format: organism-based; details: in vivo
[27] = tested on: THP-1; assay: Antiproliferative activity against human THP-1 cells assessed as cell growth inhibition incubated for 96 hrs by MTT assay; format: functional, cell-based; details: THP-1, 96 h
[28] = tested on: MV4-11; assay: Antiproliferative activity against human MV4-11 cells assessed as cell growth inhibition incubated for 96 hrs by MTT assay; format: functional, cell-based; details: MV4-11, 96 h
[29] = tested on: HL-60; assay: Antiproliferative activity against human HL-60 cells assessed as cell growth inhibition incubated for 96 hrs by MTT assay; format: functional, cell-based; details: HL-60, 96 h
[30] = tested on: HEL; assay: Antiproliferative activity against human HEL cells assessed as cell growth inhibition incubated for 96 hrs by MTT assay; format: functional, cell-based
[31] = tested on: SUD4; assay: Antiproliferative activity against human SU-DHL-4 cells assessed as cell growth inhibition incubated for 96 hrs by MTT assay; format: functional, cell-based; details: SU-DHL-4, 96 h
[32] = tested on: SU-DHL-6; assay: Antiproliferative activity against human SU-DHL-6 cells assessed as cell growth inhibition incubated for 96 hrs by MTT assay; format: functional, cell-based; details: SU-DHL-6, 96 h
[33] = tested on: Daudi; assay: Antiproliferative activity against human Daudi cells assessed as cell growth inhibition incubated for 96 hrs by MTT assay; format: functional, cell-based
[34] = tested on: Raji; assay: Antitumor activity against human Raji cells xenografted in NOD-SCID mouse assessed as tumor growth inhibition at 40 mg/kg, po administered for 25 days; format: functional; details: 600 h, time 25 day, read-out: TGI
[35] = tested on: Mus musculus; assay: Toxicity in NOD-SCID mouse xenografted with human Raji cells assessed as mortality at 40 mg/kg, po administered for 25 days; format: organism-based; details: in vivo, 600 h, time 25 day
[36] = tested on: Mus musculus; assay: Toxicity in NOD-SCID mouse xenografted with human Raji cells assessed as change in ALT level at 40 mg/kg, po administered for 25 days; format: organism-based; details: in vivo, 600 h, time 25 day
[37] = tested on: Mus musculus; assay: Toxicity in NOD-SCID mouse xenografted with human Raji cells assessed as change in AST level at 40 mg/kg, po administered for 25 days; format: organism-based; details: in vivo, 600 h, time 25 day
[38] = tested on: Mus musculus; assay: Toxicity in NOD-SCID mouse xenografted with human Raji cells assessed as change in uric acid level at 40 mg/kg, po administered for 25 days; format: organism-based; details: in vivo, 600 h, time 25 day
[39] = tested on: Mus musculus; assay: Toxicity in NOD-SCID mouse xenografted with human Raji cells assessed as change in UREAL at 40 mg/kg, po administered for 25 days; format: organism-based; details: in vivo, 600 h, time 25 day
[40] = Acute toxicity in BALB/c mouse assessed as effect on liver at 400 mg/kg, po measured on day 14 by H and E staining based assay; format: organism-based; details: in vivo, 336 h, time 14 day
[41] = Acute toxicity in BALB/c mouse assessed as effect on lung at 400 mg/kg, po measured on day 14 by H and E staining based assay; format: organism-based; details: in vivo, 336 h, time 14 day
[42] = Acute toxicity in BALB/c mouse assessed as effect on kidney at 400 mg/kg, po measured on day 14 by H and E staining based assay; format: organism-based; details: in vivo, 336 h, time 14 day
[43] = Acute toxicity in BALB/c mouse assessed as effect on heart at 400 mg/kg, po measured on day 14 by H and E staining based assay; format: organism-based; details: in vivo, 336 h, time 14 day
[44] = Acute toxicity in BALB/c mouse assessed as effect on spleen at 400 mg/kg, po measured on day 14 by H and E staining based assay; format: organism-based; details: in vivo, 336 h, time 14 day
[45] = in vitro; details: human, Caco-2
Description: Apparent permeability across apical to basolateral side in human Caco-2 cells incubated for 90 mins by LC-MS analysis

[46] = in vitro; details: human, Caco-2; remark: listed apart in the source
Description: Apparent permeability across basolateral to apical side in human Caco-2 cells incubated for 90 mins by LC-MS analysis

[47] = in vitro; details: human, Caco-2; remark: listed apart in the source
Description: Efflux ratio of apparent permeability across basolateral to apical side over apical to basolateral side in human Caco-2 cells

- IC50 [1]: 0.0068 µM
- IC50 [2]: 0.0139 µM
- inhibition [4]: 93.1%
- solubility [8]: 1.7 mg/mL (≈ 3.1 mM)
Structure (SMILES): C/C(O)=C(\C#N)C(=O)Nc1cc(O[C@@H](C)C(F)(F)F)c(C(=O)Nc2c(F)cccc2Br)cc1F
- IC50 [3]: 0.525 µM
- selectivity ratio [5]: 37.7

- IC50 [1]: 0.0182 µM
- IC50 [2]: 0.347 µM
- inhibition [4]: 85.4%
Structure (SMILES): C/C(O)=C(\C#N)C(=O)Nc1cc(OC(C)C)c(C(=O)Nc2c(F)cccc2Br)cc1F
- IC50 [3]: 2.1 µM
- selectivity ratio [5]: 6.1

- IC50 [1]: 0.0073 µM
- IC50 [2]: 0.0351 µM
- inhibition [4]: 96.9%
- solubility [8]: 2.1 mg/mL (≈ 3.45 mM)
Structure (SMILES): C/C(O)=C(\C#N)C(=O)Nc1cc(O[C@@H](C)C(F)(F)F)c(C(=O)Nc2c(Br)cccc2Br)cc1F
- IC50 [3]: 0.426 µM
- selectivity ratio [5]: 13.1

- IC50 [1]: 0.0057 µM
- IC50 [2]: 0.0321 µM
- inhibition [4]: 96.4%
- solubility [8]: 2.4 mg/mL (≈ 4.61 mM)
Structure (SMILES): C/C(O)=C(\C#N)C(=O)Nc1cc(O[C@@H](C)C(F)(F)F)c(C(=O)Nc2c(Cl)cccc2Cl)cc1F
- IC50 [3]: 0.452 µM
- selectivity ratio [5]: 14.1

More lines, now with the values behind:

Structure (SMILES): CCOc1cc(NC(=O)/C(C#N)=C(/C)O)c(F)cc1C(=O)Nc1c(Cl)cccc1Cl
- IC50 [1]: 0.0174 µM
- IC50 [2]: 0.573 µM
- IC50 [3]: 2.71 µM
- inhibition [4]: 85.8%
- selectivity ratio [5]: 4.7

Structure (SMILES): CCn1c(CO)nn(-c2cc(O[C@@H](C)C(F)(F)F)c(C(=O)Nc3c(F)cccc3Cl)cc2F)c1=O
- IC50 [2]: 0.0004 µM
- IC50 [3]: 0.0011 µM
- Activity [6]: Toxic
- inhibition in vivo at 1.5 mg/kg [7]: 79%

Structure (SMILES): C/C(O)=C(\C#N)C(=O)Nc1cc(F)c(C(=O)Nc2c(F)cccc2Cl)cc1F
- inhibition [4]: 26.4%

Structure (SMILES): CCOc1cc(NC(=O)/C(C#N)=C(/C)O)c(F)cc1C(=O)Nc1c(F)cccc1F
- inhibition [4]: 40.2%

Structure (SMILES): C/C(O)=C(\C#N)C(=O)Nc1cc(O[C@@H](C)C(F)(F)F)c(C(=O)Nc2c(F)cccc2Cl)cc1F
- IC50 [1]: 0.0069 µM
- IC50 [2]: 0.0137 µM
- IC50 [3]: 0.511 µM
- fraction unbound at 5 h, 0.1 µM [9]: 0.278
- fraction unbound at 5 h, 1 µM [10]: 0.057
- fraction unbound at 5 h, 10 µM [11]: 0.017
- half-life at 1 µM [12]: 2.31 h
- half-life at 1 µM [13]: 0.77 h
- half-life at 1 µM [14]: 2.46 h
- Cmax [15]: 1.32 µg/mL
- Tmax [16]: 12 h
- half-life [17]: 4.6 h
- half-life [18]: 8.7 h
- clearance [19]: 0.3 L/h/kg
- CL/F [20]: 0.7 L/h/kg
- AUC(0-t) at 48 h [21]: 21.5 µg·h/mL
- AUC(0-t) at 48 h [22]: 21.1 µg·h/mL
- bioavailability [23]: 32.8%
- Activity [24]: Non-Toxic
- Activity [25]: Non-Toxic
- Activity [26]: Non-Toxic
- IC50 [27]: 0.02 µM
- IC50 [28]: 0.02 µM
- IC50 [29]: 0.02 µM
- IC50 [30]: 0.02 µM
- IC50 [31]: 0.02 µM
- IC50 [32]: 0.02 µM
- IC50 [33]: 0.02 µM
- inhibition in vivo at 40 mg/kg [34]: 73.1%
- Activity [35]: Non-Toxic
- Activity [36]: Non-Toxic
- Activity [37]: Non-Toxic
- Activity [38]: Non-Toxic
- Activity [39]: Non-Toxic
- Activity [40]: Non-Toxic
- Activity [41]: Non-Toxic
- Activity [42]: Non-Toxic
- Activity [43]: Non-Toxic
- Activity [44]: Non-Toxic
- inhibition [4]: 93.6%
- solubility [8]: 5.2 mg/mL (≈ 10.3 mM)
- selectivity ratio [5]: 37.2
- Papp A→B at 1.5 h [45]: 2.9 nm/s
- Papp B→A at 1.5 h [46]: 20.4 nm/s
- efflux ratio [47]: 7

Structure (SMILES): COc1cccc(NC(=O)c2cc(F)c(NC(=O)/C(C#N)=C(/C)O)cc2OC(C)C)c1
- inhibition [4]: 21.3%

Structure (SMILES): C/C(O)=C(\C#N)C(=O)Nc1cc(OC(C)C)c(C(=O)Nc2ccccc2F)cc1F
- inhibition [4]: 23%

Structure (SMILES): C/C(O)=C(\C#N)C(=O)Nc1ccc(C(=O)Nc2c(F)cccc2F)c(OC(C)C)c1
- inhibition [4]: 53.4%

Structure (SMILES): CCOc1cc(NC(=O)/C(C#N)=C(/C)O)c(F)cc1C(=O)Nc1c(F)cccc1Br
- IC50 [1]: 0.04 µM
- inhibition [4]: 72.7%

Structure (SMILES): CCOc1cc(NC(=O)/C(C#N)=C(/C)O)c(F)cc1C(=O)Nc1c(F)cccc1Cl
- IC50 [1]: 0.0441 µM
- inhibition [4]: 63.8%
